Format in all cases: biochemical
Common to all, as to conditions: wild-type un-phosphorylated protein; pre-incubated for 4 hours; ATP near or below Km

Experiment [1] has as its target wild-type un-phosphorylated FGFR3 (Homo sapiens, UniProt P22607). Nature of the experiment: FGFR Enzymatic Assay (FRET peptide phosphorylation), FGFR3. As for the experimental part: (§1) The inhibitor potency of the exemplified compounds was determined in an enzyme discontinuous assay that measures peptide phosphorylation using FRET measurements to detect product formation. Inhibitors were serially diluted in DMSO and a volume of 0.2 μL was transferred to the wells of a 384-well plate. […] Appropriate controls (enzyme blank and enzyme with no inhibitor) were included on the plate. […] The ATP Km values were pre-determined in a separate series of experiments. […] The plate was allowed to equilibrate for ˜10 minutes at ambient temperature before scanning on a PheraStar plate reader (BMG Labtech) instrument.
(§2) Either GraphPad prism or XLfit was used to analyze the data. The IC50 values were derived by fitting the data to a four parameter logistic equation producing a sigmoidal dose-response curve with a variable Hill coefficient. Prism equation: Y=Bottom+(Top−Bottom)/(1+10^((LogIC50−X)*Hill slope)); XLfit equation: Y=(A+((B−A)/(1+((X/C)^D)))) where X is the logarithm of inhibitor concentration and Y is the response.

Experiment [2] has as its target wild-type un-phosphorylated FGFR1 (Homo sapiens, UniProt P11362). Nature of the experiment: FGFR Enzymatic Assay (FRET peptide phosphorylation), FGFR1. The procedure:
as §1, §2

Experiment [3] has as its target wild-type un-phosphorylated FGFR4 (Homo sapiens, UniProt P22455). Nature of the experiment: FGFR Enzymatic Assay (FRET peptide phosphorylation), FGFR4. As for the experimental part:
as §1, §2
(§3) The data in Table 1 was measured in wild-type un-phosphorylated FGFR1, FGFR2, FGFR3 and FGFR4 protein.

The target in experiment [4] is wild-type un-phosphorylated FGFR2 (Homo sapiens, UniProt P21802). Nature of the experiment: FGFR Enzymatic Assay (FRET peptide phosphorylation), FGFR2. The procedure:
as §1, §2, §3

SMILES strings stand for the structures. pIC50: −log10 of the molar value.

Sequence of wild-type un-phosphorylated FGFR2 (P21802 22-821): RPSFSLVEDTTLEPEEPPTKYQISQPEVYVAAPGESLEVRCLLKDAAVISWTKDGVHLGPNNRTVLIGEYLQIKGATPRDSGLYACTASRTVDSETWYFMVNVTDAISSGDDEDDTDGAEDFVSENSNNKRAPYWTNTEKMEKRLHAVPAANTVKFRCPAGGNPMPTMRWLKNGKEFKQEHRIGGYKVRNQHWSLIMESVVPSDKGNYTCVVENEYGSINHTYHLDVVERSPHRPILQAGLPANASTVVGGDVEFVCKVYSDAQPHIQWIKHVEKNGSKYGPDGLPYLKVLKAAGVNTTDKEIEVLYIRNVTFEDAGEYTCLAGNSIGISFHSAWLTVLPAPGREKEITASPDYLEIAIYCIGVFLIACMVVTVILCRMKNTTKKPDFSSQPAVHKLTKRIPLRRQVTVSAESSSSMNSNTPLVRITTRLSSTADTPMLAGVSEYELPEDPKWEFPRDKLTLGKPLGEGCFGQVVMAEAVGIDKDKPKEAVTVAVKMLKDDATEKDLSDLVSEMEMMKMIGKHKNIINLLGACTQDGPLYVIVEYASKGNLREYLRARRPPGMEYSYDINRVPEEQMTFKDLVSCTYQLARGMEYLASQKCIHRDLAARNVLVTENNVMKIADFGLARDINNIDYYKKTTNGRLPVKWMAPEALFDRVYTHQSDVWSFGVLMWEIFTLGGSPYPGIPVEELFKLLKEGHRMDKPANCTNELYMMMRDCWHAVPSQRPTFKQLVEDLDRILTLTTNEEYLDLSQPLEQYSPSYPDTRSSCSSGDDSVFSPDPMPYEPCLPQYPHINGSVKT
Sequence of wild-type un-phosphorylated FGFR4 (P22455 22-802): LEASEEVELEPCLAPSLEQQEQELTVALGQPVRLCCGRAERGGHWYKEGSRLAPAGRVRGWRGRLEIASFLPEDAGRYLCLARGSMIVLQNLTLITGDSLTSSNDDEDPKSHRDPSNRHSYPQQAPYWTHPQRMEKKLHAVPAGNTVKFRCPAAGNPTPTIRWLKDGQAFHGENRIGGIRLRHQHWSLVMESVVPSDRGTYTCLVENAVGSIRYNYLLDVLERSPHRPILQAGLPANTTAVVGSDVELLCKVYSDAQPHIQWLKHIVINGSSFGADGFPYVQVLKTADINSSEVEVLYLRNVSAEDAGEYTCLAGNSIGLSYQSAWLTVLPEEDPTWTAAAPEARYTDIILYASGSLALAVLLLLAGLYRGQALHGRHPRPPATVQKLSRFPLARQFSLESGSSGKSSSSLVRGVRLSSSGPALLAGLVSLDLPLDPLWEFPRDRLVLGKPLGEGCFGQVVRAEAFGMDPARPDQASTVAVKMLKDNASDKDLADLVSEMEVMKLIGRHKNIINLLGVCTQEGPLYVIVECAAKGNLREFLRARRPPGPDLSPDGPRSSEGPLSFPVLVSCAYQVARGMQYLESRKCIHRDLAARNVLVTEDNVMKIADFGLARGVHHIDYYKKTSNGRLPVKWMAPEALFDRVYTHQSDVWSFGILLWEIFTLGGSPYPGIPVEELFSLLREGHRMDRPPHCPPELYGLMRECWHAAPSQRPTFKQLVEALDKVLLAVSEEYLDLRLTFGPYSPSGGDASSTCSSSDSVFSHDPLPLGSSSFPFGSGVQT
Sequence of wild-type un-phosphorylated FGFR3 (P22607 23-806): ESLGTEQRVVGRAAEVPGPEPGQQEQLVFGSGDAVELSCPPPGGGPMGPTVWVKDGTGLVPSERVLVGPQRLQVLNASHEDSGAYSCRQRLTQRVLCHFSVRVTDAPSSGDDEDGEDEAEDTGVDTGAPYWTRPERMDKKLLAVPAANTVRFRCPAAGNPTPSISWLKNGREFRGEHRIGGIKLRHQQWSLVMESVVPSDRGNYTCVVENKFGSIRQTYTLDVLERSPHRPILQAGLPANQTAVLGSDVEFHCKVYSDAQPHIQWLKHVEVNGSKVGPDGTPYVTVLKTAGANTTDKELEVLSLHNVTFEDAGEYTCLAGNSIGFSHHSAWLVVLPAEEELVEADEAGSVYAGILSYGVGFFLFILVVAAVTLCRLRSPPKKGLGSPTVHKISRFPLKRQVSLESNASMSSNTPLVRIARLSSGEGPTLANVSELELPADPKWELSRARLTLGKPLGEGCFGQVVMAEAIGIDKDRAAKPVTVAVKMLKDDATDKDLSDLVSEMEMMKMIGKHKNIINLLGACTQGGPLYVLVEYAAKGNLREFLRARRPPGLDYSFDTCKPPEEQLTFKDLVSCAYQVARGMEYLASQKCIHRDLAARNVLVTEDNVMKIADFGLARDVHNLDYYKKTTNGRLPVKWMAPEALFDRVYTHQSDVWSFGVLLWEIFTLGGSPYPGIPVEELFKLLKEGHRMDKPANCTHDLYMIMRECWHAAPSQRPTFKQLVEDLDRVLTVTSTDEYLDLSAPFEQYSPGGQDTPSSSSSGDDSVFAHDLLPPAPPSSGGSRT
Sequence of wild-type un-phosphorylated FGFR1 (P11362 22-822): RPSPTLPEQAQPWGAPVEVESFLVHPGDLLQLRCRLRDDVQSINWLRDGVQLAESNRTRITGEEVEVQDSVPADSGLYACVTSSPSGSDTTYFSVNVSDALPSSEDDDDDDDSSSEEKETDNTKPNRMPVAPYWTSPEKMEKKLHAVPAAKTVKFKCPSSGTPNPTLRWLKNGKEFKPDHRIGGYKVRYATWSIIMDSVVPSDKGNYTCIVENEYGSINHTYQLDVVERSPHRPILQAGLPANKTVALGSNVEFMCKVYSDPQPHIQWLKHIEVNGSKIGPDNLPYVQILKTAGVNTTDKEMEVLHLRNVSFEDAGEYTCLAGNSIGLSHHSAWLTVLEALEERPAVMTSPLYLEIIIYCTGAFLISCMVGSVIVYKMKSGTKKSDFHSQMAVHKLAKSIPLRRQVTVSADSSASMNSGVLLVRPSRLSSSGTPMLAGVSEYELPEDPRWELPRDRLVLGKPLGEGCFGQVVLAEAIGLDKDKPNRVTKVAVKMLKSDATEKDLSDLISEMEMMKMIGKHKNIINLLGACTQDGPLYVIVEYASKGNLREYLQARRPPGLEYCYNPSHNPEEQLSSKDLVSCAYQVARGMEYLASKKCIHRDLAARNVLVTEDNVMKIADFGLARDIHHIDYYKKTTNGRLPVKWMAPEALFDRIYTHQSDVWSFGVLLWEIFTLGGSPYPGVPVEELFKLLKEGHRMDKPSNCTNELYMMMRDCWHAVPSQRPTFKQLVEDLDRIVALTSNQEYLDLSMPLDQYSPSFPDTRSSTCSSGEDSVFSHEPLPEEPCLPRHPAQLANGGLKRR

Consider `CNC(=O)c1cccc(-c2cnc3cc(-c4cnn(C)c4)c(OC)cn23)c1` [Example 1, 3-(6-Methoxy-7-(1-methyl-1H-pyrazol-4-yl)imidazo[1,2-a]pyridine-3-yl)-N-methylbenzamide], for which the pIC50 (as a rule, the IC50 on a negative log10 scale, so that one unit is a factor of ten) in experiment [1] was 7.00 to 8.00; in experiment [2], at most 6.40; in experiment [3], at most 6.40.

For `CNC(=O)c1cccc(-c2cnc3cc(-c4cnn(C)c4)c(OC)nn23)c1` [Example 2, 3-(6-Methoxy-7-(1-methyl-1H-pyrazol-4-yl)imidazo[1,2-b]pyridazin-3-yl)-N-methylbenzamide], the pIC50 in experiment [3] is at most 6.40.

Take `CNC(=O)c1cc(F)c(F)c(-c2cnc3cc(-c4cnn5c4CCC5)c(O[C@H]4CCOC4)nn23)c1` [Example 22, (S)-3-(7-(5,6-Dihydro-4H-pyrrolo[1,2-b]pyrazol-3-yl)-6-((tetrahydrofuran-3-yl)oxy)imidazo[1,2-b]pyridazin-3-yl)-4,5-difluoro-N-methylbenzamide]: the pIC50 was above 8.00 in experiment [1], 7.00 to 8.00 in experiment [2], above 8.00 in experiment [4] and 6.40 to 7.00 in experiment [3].

Regarding `CNC(=O)c1cc(-c2cnc3cc(-c4cnn(CCN5CCOCC5)c4)c(O[C@H]4CCOC4)nn23)c(F)c(C(F)F)c1` [Example 30, (S)-3-(Difluoromethyl)-4-fluoro-N-methyl-5-(7-(1-(2-morpholinoethyl)-1H-pyrazol-4-yl)-6-((tetrahydrofuran-3-yl)oxy)imidazo[1,2-b]pyridazin-3-yl)benzamide], the pIC50 in experiment [1] was above 8.00; in experiment [2], 7.00 to 8.00; in experiment [4], above 8.00; in experiment [3] it was 7.00 to 8.00.

`CC(C)n1cc(-c2cc3ncc(-c4cccc(F)c4F)n3nc2O[C@H]2CCOC2)cn1` [Example 46, (S)-3-(2,3-Difluorophenyl)-7-(1-isopropyl-1H-pyrazol-4-yl)-6-((tetrahydrofuran-3-yl)oxy)imidazo[1,2-b]pyridazine]: the pIC50 in experiment [1] is 7.00 to 8.00; in experiment [2] it was 6.40 to 7.00; in experiment [4] it was 7.00 to 8.00.

Take `CCOc1cccc(-c2cnc3cc(-c4cnn(C)c4)c(O[C@H]4CCOC4)nn23)c1` [Example 47, (S)-3-(3-Ethoxyphenyl)-7-(1-methyl-1H-pyrazol-4-yl)-6-((tetrahydrofuran-3-yl)oxy)imidazo[1,2-b]pyridazine]: the pIC50 in experiment [1], in experiment [2] and in experiment [4] was 7.00 to 8.00 in each case.

For the compound `CC(C)(O)Cn1cc(-c2cc3ncc(-c4cccc(-c5ccc(F)cc5F)c4)n3nc2O[C@H]2CCOC2)cn1` [Example 48, (S)-1-(4-(3-(2′,4′-Difluoro-[1,1′-biphenyl]-3-yl)-6-((tetrahydrofuran-3-yl)oxy)imidazo[1,2-b]pyridazin-7-yl)-1H-pyrazol-1-yl)-2-methylpropan-2-ol], the negative logarithm of the IC50 (pIC50) in experiment [1], in experiment [2] and in experiment [4] was 7.00 to 8.00 in each case.

With `CNC(=O)c1cccc(-c2cnc3cc(-c4cnn(C)c4)c(OC4COC4)nn23)c1` [Example 58, N-Methyl-3-(7-(1-methyl-1H-pyrazol-4-yl)-6-(oxetan-3-yloxy)imidazo[1,2-b]pyridazin-3-yl)benzamide], the results for the pIC50 in experiment [4] and in experiment [3] were above 8.00 and 6.40 to 7.00, respectively.

Consider `CNC(=O)c1cncc(-c2cnc3cc(-c4ccc(NC(=O)OC)cc4)c(O[C@H]4CCOC4)nn23)c1` [Example 67, Methyl (S)-(4-(3-(5-(Methylcarbamoyl)pyridin-3-yl)-6-((tetrahydrofuran-3-yl)oxy)imidazo[1,2-b]pyridazin-7-yl)phenyl)carbamate], for which the pIC50 is 7.00 to 8.00 in experiment [1], 6.40 to 7.00 in experiment [2] and 7.00 to 8.00 in experiment [4].

Turning to `CNC(=O)c1cncc(-c2cnc3cc(-c4ccc(N5CCN(C)CC5)cc4)c(O[C@H]4CCOC4)nn23)c1` [Example 68, (S)—N-Methyl-5-(7-(4-(4-methylpiperazin-1-yl)phenyl)-6-((tetrahydrofuran-3-yl)oxy)imidazo[1,2-b]pyridazin-3-yl)nicotinamide], the pIC50 in experiment [1] was above 8.00; in experiment [2] it was 7.00 to 8.00; in experiment [4], 7.00 to 8.00.

As to `CNC(=O)c1cc(F)c(F)c(-c2cnc3cc(-c4cnn(C5CCS(=O)(=O)C5)c4)c(O[C@H]4CCOC4)nn23)c1` (stereo partly drawn) [Example 69, 3-(7-(1-(1,1-Dioxidotetrahydrothiophen-3-yl)-1H-pyrazol-4-yl)-6-(((S)-tetrahydrofuran-3-yl)oxy)imidazo[1,2-b]pyridazin-3-yl)-4,5-difluoro-N-methylbenzamide], the negative-log IC50 (pIC50) was above 8.00 in experiment [1], 7.00 to 8.00 in experiment [2] and above 8.00 in experiment [4].

As to `CNC(=O)c1cc(F)c(F)c(-c2cnc3cc(-c4cnn(-c5ccccn5)c4)c(O[C@H]4CCOC4)nn23)c1` [Example 70, (S)-3,4-Difluoro-N-methyl-5-(7-(1-(pyridin-2-yl)-1H-pyrazol-4-yl)-6-((tetrahydrofuran-3-yl)oxy)imidazo[1,2-b]pyridazin-3-yl)benzamide], the pIC50 is above 8.00 in experiment [1], 6.40 to 7.00 in experiment [2] and above 8.00 in experiment [4].

Regarding `CNC(=O)c1cc(F)c(F)c(-c2cnc3cc(-c4cnn(C5CCN(C)CC5)c4)c(O[C@H]4CCOC4)nn23)c1` [Example 71, (S)-3,4-Difluoro-N-methyl-5-(7-(1-(1-methylpiperidin-4-yl)-1H-pyrazol-4-yl)-6-((tetrahydrofuran-3-yl)oxy)imidazo[1,2-b]pyridazin-3-yl)benzamide], the pIC50 in experiment [1], in experiment [2] and in experiment [4] was above 8.00 throughout.

`CNC(=O)c1cc(F)c(F)c(-c2cnc3cc(-c4ccncc4)c(O[C@H]4CCOC4)nn23)c1` [Example 72, (S)-3,4-Difluoro-N-methyl-5-(7-(pyridin-4-yl)-6-((tetrahydrofuran-3-yl)oxy)imidazo[1,2-b]pyridazin-3-yl)benzamide]: the negative logarithm of the IC50 (pIC50) in experiment [1] is above 8.00; in experiment [2], 6.40 to 7.00; in experiment [4], 7.00 to 8.00.

Turning to `CNC(=O)c1cc(F)c(F)c(-c2cnc3cc(-c4cnn(C5CCN(C(=O)N(C)C)CC5)c4)c(O[C@H]4CCOC4)nn23)c1` [Example 73, (S)-4-(4-(3-(2,3-Difluoro-5-(methylcarbamoyl)phenyl)-6-((tetrahydrofuran-3-yl)oxy)imidazo[1,2-b]pyridazin-7-yl)-1H-pyrazol-1-yl)-N,N-dimethylpiperidine-1-carboxamide], the pIC50 in experiment [1], in experiment [2] and in experiment [4] was above 8.00 throughout.

For `CNC(=O)c1cc(F)c(F)c(-c2cnc3cc(-c4cnn(C5CCN(C(C)=O)CC5)c4)c(O[C@H]4CCOC4)nn23)c1` [Example 74, (S)-3-(7-(1-(1-Acetylpiperidin-4-yl)-1H-pyrazol-4-yl)-6-((tetrahydrofuran-3-yl)oxy)imidazo[1,2-b]pyridazin-3-yl)-4,5-difluoro-N-methylbenzamide], the pIC50 in experiment [1], in experiment [2] and in experiment [4] was above 8.00 throughout.

On to `CNC(=O)c1cc(F)c(F)c(-c2cnc3cc(-c4cnn(CCN5CCCC5=O)c4)c(O[C@H]4CCOC4)nn23)c1` [Example 75, (S)-3,4-Difluoro-N-methyl-5-(7-(1-(2-(2-oxopyrrolidin-1-yl)ethyl)-1H-pyrazol-4-yl)-6-((tetrahydrofuran-3-yl)oxy)imidazo[1,2-b]pyridazin-3-yl)benzamide], for which the pIC50 in experiment [1], in experiment [2] and in experiment [4] was above 8.00 in each case.

For `CNC(=O)c1cc(F)c(F)c(-c2cnc3cc(-c4cnn(C5CCN(S(=O)(=O)N(C)C)CC5)c4)c(O[C@H]4CCOC4)nn23)c1` [Example 76, (S)-3-(7-(1-(1-(N,N-Dimethylsulfamoyl)piperidin-4-yl)-1H-pyrazol-4-yl)-6-((tetrahydrofuran-3-yl)oxy)imidazo[1,2-b]pyridazin-3-yl)-4,5-difluoro-N-methylbenzamide], the pIC50 in experiment [1], in experiment [2] and in experiment [4] was above 8.00 in each case.

Take `CC(C)n1cc(-c2cc3ncc(-c4ccc5c(c4)C(=O)NC5)n3nc2O[C@H]2CCOC2)cn1` [Example 77, (S)-6-(7-(1-Isopropyl-1H-pyrazol-4-yl)-6-((tetrahydrofuran-3-yl)oxy)imidazo[1,2-b]pyridazin-3-yl)isoindolin-1-one]: the pIC50 in experiment [1] was 7.00 to 8.00; in experiment [2] it was at most 6.40; in experiment [4], 7.00 to 8.00.

(Values after patent US12012409B2, “Bicyclic heterocycles as FGFR inhibitors” (Incyte Corporation, priority 2020, dated 2024).)
